Measurements from patent US20260070922A1, “PYRAZOLE AND IMIDAZOLE DERIVATIVES AS DUAL OREXIN AND KAPPA-OPIOID RECEPTORS MODULATORS COMPOSITION, METHODS FOR TREATING NEUROLOGICAL AND PSYCHIATRIC DISORDERS” (HAGER BIOSCIENCES, LLC, priority 2022, published 2026).

How the values were obtained:
[1] = molecular target: T1, Orexin type 1 (OX1R) receptor (Homo sapiens, UniProt O43613); assay: In vitro orexin antagonism assay: intracellular calcium measurement (FLIPR), orexin-A 3 nM as agonist; type: cell-based; conditions: for IC50: first value of IC50/Kb cell; for inhibition at 1 µM: read-out: OX1R, % Inh. @ 1 uM; for Kb: second value of IC50/Kb cell
T1 construct: expressed in transfected cells; host or cells: CHO cells (G418 selection)
T1 sequence (O43613 1-425): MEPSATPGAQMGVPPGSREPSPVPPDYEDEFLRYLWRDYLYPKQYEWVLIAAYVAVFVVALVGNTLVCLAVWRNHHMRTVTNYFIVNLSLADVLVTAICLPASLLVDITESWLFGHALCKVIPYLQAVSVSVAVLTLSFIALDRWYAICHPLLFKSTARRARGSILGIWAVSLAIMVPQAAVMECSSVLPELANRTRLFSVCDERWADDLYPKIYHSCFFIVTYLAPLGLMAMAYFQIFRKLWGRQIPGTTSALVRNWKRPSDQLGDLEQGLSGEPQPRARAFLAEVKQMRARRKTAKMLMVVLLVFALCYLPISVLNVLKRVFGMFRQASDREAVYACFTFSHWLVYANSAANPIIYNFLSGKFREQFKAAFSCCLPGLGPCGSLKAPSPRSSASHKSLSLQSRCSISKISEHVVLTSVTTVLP
Method in brief: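 CHO cells expressing the human orexin receptor were loaded with 3 μM fluo-4 AM plus 5 mM probenecid, then exposed to antagonist for 120 min before 3 nM orexin-A (final) was added on a FLIPR.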

[2] = molecular target: T2, human orexin-2 receptor (OX2R) (Homo sapiens, UniProt O43614); assay: as above; type: cell-based; conditions: for IC50: first value of IC50/Kb cell; for inhibition at 1 µM: read-out: OX2R, % Inh. @ 1 uM; for Kb: second value of IC50/Kb cell
T2 construct: expressed in transfected cells; host or cells: CHO cells (G418 selection)
T2 sequence (O43614 1-444): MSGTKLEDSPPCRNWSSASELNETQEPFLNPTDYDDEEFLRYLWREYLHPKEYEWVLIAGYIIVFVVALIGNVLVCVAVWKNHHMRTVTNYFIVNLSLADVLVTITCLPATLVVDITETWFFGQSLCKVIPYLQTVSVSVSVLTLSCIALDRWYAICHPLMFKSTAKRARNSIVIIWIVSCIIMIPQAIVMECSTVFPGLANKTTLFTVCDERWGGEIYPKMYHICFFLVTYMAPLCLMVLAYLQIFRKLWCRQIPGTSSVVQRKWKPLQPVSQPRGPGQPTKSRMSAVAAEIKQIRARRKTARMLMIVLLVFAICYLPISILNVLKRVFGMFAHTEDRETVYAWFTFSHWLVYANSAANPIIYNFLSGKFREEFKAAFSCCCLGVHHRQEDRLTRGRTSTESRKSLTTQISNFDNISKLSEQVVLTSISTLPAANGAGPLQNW
Method in brief: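 CHO cells stably expressing human OX1R or OX2R, loaded with fluo-4 AM (3 μM, 5 mM probenecid) for 50 min at 37 °C, then 30 min at RT. Antagonist preincubated 120 min before 3 nM orexin-A; FLIPR fluorescence peak height vs vehicle gives IC50, possibly normalized to on-plate reference; geometric mean of repeats.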

[3] = molecular target: T3, human k-opioid receptor (kOR) (Homo sapiens, UniProt P41145); assay: Human k-opioid (KOP) receptor (agonist radioligand [3H]U-69593) binding assay, transfected RBL cell membranes; conditions: read-out: KOR % Inh. @ 1 uM
T3 construct: expressed in transfected cells; host or cells: RBL cells (membrane homogenates)
T3 sequence (P41145 whole entry): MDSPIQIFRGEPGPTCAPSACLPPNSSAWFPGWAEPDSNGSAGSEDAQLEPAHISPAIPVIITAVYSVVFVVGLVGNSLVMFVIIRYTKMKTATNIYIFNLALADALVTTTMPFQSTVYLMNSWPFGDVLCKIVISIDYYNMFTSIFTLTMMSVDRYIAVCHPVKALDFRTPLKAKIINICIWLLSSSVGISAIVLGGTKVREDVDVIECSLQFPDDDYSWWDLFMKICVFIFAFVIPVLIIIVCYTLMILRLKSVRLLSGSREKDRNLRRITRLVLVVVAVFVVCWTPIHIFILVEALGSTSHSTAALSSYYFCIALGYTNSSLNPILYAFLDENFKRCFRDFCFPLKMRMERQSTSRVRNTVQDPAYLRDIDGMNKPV
Experimental: Human k-Opioid (KOP) Receptor (Agonist Radioligand) Binding Assay
Purpose: Evaluation of the affinity of compounds for the human k-opioid receptor in transfected RBL cells determined in a radioligand binding assay.
Experimental protocol: Cell membrane homogenates (about 80 μg protein) are incubated for 60 min at 22° C. with 0.5 nM [3H]U-69593 in the absence or presence of the test compound in a buffer containing 50 mM Tris-HCl (pH 7.4), 10 mM MgCl2 and 1 mM EDTA. Nonspecific binding is determined in the presence of 10 μM naloxone. Following incubation, the samples are filtered rapidly under vacuum through glass fiber filters ([…], Packard) presoaked with 0.3% PEI and rinsed several times with ice-cold 50 mM Tris-HCl using a 96-sample cell harvester (Unifilter, Packard). The filters are dried then counted for radioactivity in a scintillation counter (Topcount, Packard) using a scintillation cocktail (Microscint 0, Packard). The results are expressed as a percent inhibition of the control radioligand specific binding. The standard reference compound is U-50488, which is tested in each experiment at several concentrations to obtain a competition curve from which its IC50 is calculated.

| SMILES | IC50 [1] [nM] | inhibition at 1 µM [1] [%] | Kb [1] [nM] | IC50 [2] [nM] | inhibition at 1 µM [2] [%] | Kb [2] [nM] | inhibition at 1 µM [3] [%] |
| --- | --- | --- | --- | --- | --- | --- | --- |
| O=C(c1c(-c2ccccc2)nn2cccnc12)N1CCC[C@H]1Cn1ccc(-c2ccccc2)n1 [Example 133] | 4 | 99 | 1 | 83 | 81 | 14 | 44 |
| O=C(c1nn2c(c1-c1ccccc1)COCC2)N1CCC[C@H]1Cn1ccc(-c2ccccn2)n1 [Example 134] | 12 | 100 | 3 | – | 44 | – | 0 |
| O=C(c1nn2c(c1-c1ccccc1)OCCC2)N1CCC[C@H]1Cn1ccc(-c2ccccn2)n1 [Example 135] | 4 | 100 | 1 | 660 | 71 | 110 | 22 |
| O=C(c1nn2cccnc2c1-c1ccccc1)N1CCC[C@H]1Cn1ccc(-c2ccccc2)n1 [Example 136] | 9 | 99 | 1 | 3 | 74 | 0.5 | 26 |
| O=C(c1nn2cccnc2c1-c1ccccc1)N1CCC[C@H]1Cn1ccc(-c2ccccn2)n1 [Example 137] | 5 | 99 | 1 | 490 | 52 | 85 | 9 |
| O=C(c1c(-c2ncccn2)nn2ccccc12)N1CCC[C@H]1Cn1ccc(-c2ccccn2)n1 [Example 138] | 9 | 100 | 2 | 490 | 62 | 84 | 0 |
| O=C(c1c(-c2ccccn2)nn2ccccc12)N1CCC[C@H]1Cn1ccc(-c2ccccn2)n1 [Example 139] | 8 | 100 | 2 | 63 | 82 | 11 | 0 |
| O=C(c1c(-c2ccccc2)nn2cccnc12)N1CCC[C@H]1Cn1ccc(-c2ccccn2)n1 [Example 140] | 4 | 100 | 1 | 190 | 59 | 32 | 14 |
| O=C(c1nn2c(c1-c1ccccc1)COCC2)N1CCC[C@H]1COc1ccc(C(F)(F)F)cn1 [Example 141] | 5 | 100 | 1 | – | 33 | – | 40 |
| C[C@@]1(COc2ccc(C(F)(F)F)cn2)CCCN1C(=O)c1nn2ccccc2c1-c1ccccc1 [Example 143] | 210 | 98 | 45 | – | 31 | – | 3 |
| C[C@@]1(COc2ccc(C(F)(F)F)cn2)CCCN1C(=O)c1nc2ccccn2c1-c1ccccc1 [Example 144] | 250 | 98 | 53 | – | 13 | – | 4 |
| C[C@@]1(COc2ccc(C(F)(F)F)cn2)CCCN1C(=O)c1nn2c(c1-c1ccccc1)COCC2 [Example 145] | 270 | 96 | 56 | – | 5 | – | 12 |
| C[C@@]1(COc2ccc(C(F)(F)F)cn2)CCCN1C(=O)c1nn2cccnc2c1-c1ccccc1 [Example 146] | 350 | 99 | 74 | – | 27 | – | 0 |
| C[C@@]1(COc2ccc(C(F)(F)F)cn2)CCCN1C(=O)c1c(-c2ccccn2)nn2ccccc12 [Example 147] | 43 | 100 | 9 | – | 25 | – | 2 |
| C[C@@]1(COc2ccc(C(F)(F)F)cn2)CCCN1C(=O)c1c(-c2ncccn2)nn2ccccc12 [Example 148] | 120 | 98 | 26 | – | 19 | – | 8 |
| C[C@@]1(Cn2ccc(-c3ccccn3)n2)CCCN1C(=O)c1nc2ccccn2c1-c1ccccc1 [Example 149] | 570 | 89 | 120 | – | 13 | – | 28 |
| C[C@@]1(Cn2ccc(-c3ccccn3)n2)CCCN1C(=O)c1nn2ccccc2c1-c1ccccc1 [Example 150] | 340 | 97 | 72 | – | 11 | – | 16 |
| C[C@@]1(COc2ccc(C(F)(F)F)cn2)CCCN1C(=O)c1c(-c2ccccc2)nn2ccccc12 [Example 151] | 90 | 99 | 19 | – | 34 | – | 7 |
| O=C(c1nn2c(c1-c1ccccc1)COCC2)N1[C@@H]2CC[C@@H](C2)[C@H]1COc1ccc(C(F)(F)F)cn1 [Example 152] | 2400 | 58 | 510 | – | 16 | – | 3 |
| O=C(c1c(-c2ncccn2)nn2ccccc12)N1[C@@H]2CC[C@@H](C2)[C@H]1COc1ccc(C(F)(F)F)cn1 [Example 153] | 190 | 90 | 40 | – | 35 | – | 0 |
| C[C@@]1(Cn2ccc(-c3ccccn3)n2)CCCN1C(=O)c1nn2c(c1-c1ccccc1)COCC2 [Example 154] | 520 | 83 | 110 | – | 5 | – | 23 |
| O=C(c1c(-c2ncccn2)nn2ccccc12)N1CCC[C@H]1Cc1nc(-c2ccccn2)no1 [Example 155] | 410 | 69 | 87 | – | 25 | – | 12 |
| O=C(c1c(-c2ccccn2)nn2ccccc12)N1CCC[C@H]1Cc1nc(-c2ccccn2)no1 [Example 156] | 23 | 97 | 5 | – | 50 | – | 6 |
| C[C@@]1(COc2ccc(C(F)(F)F)cn2)CCCN1C(=O)c1nn2c(c1-c1ccccc1)OCCC2 [Example 157] | 190 | 100 | 39 | – | 16 | – | 7 |
| C[C@@]1(COc2ccc(C(F)(F)F)cn2)CCCN1C(=O)c1c(-c2ccccc2)nn2cccnc12 [Example 158] | 120 | 93 | 26 | – | 46 | – | 2 |
| [2H]C1([2H])CC[C@@]([2H])(COc2ccc(C(F)(F)F)cn2)N1C(=O)c1nn2c(c1-c1ccccc1)COCC2 [Example 171] | 10 | 100 | 2 | – | 26 | – | 0 |
| O=C(c1nn2ccccc2c1-c1ccccn1)N1CCC[C@H]1COc1ccc(C(F)(F)F)cn1 [Example 172] | – | 100 | – | – | 40 | – | 4 |
